# Test results from patent publication US9260416B2, “Heterocyclic autotaxin inhibitors and uses thereof” (AMIRA PHARMACEUTICALS, INC., priority 2011, dated 2016).
# pIC50: −log10 of the molar value.
# Molecular target: T1, autotaxin (Homo sapiens, UniProt Q13822)
# T1 construct: tissue Biocell Laboratories Inc 1121-00; host or cells: human serum (delipidated, dialyzed)
# Experiment: Human Serum Autotaxin Assay (choline release from LPC, TOOS detection)
# Format: biochemical
# Details: dialyzed human serum; substrate LPC 14:0, 300 μM; 4 hours at 37° C.; choline release read at 555 nm
# Procedure: Human Serum Autotaxin Assay
# Inhibition of autotaxin activity is assayed in human serum by measuring the amount of choline released from the substrate, lysophosphatidylcholine (LPC). […] To assay for autotaxin inhibition, 20 μl of the dialyzed human serum is incubated with 2 μl test compound in DMSO and 73 μl lyso-PLD buffer (100 mM Tris pH 9, 500 mM NaCl, 5 mM MgCl2, 30 μM CoCl2, 0.05% Triton X-100) for 15 minutes at 37° C. […] 100 μl of a color mix which contains 4.5 mM 4-aminoantipyrine, 2.7 mM N-ethyl-N-(2-hydroxy-3-sulfopropyl)-m-toluidine, 21 units/ml Horseradish peroxidase and 3 units/ml choline oxidase in 50 mM Tris, pH 8, 4.5 mM MgCl2 is added and the incubation continued for 15 minutes at room temperature before reading the absorbance at 555 nm. The concentration of released choline in the sample is determined from a choline standard curve and is equal to the concentration of LPA produced.
row,SMILES,pIC50
1,"Cc1[nH]c2cc(Cl)ccc2c1Sc1cncc(C(=O)O)c1 [Compound 1-1, 5-(6-Chloro-2-methyl-1H-indol-3-ylsulfanyl)-nicotinic acid]",< 6.00
2,"Cc1c(Sc2cncc(C(=O)O)c2)c2ccc(Cl)cc2n1Cc1ccccc1 [Compound 1-2, 5-(1-Benzyl-6-chloro-2-methyl-1H-indol-3-ylsulfanyl)-nicotinic acid]",< 6.00
3,"CCn1cc(-n2c(C)c(Sc3cncc(C(=O)O)c3)c3ccc(Cl)cc32)cn1 [Compound 1-4, 5-[6-Chloro-1-(1-ethyl-1H-pyrazol-4-yl)-2-methyl-1H-indol-3-ylsulfanyl]-nicotinic acid]",> 6.52
4,"Cc1c(Sc2cncc(C(=O)O)c2)c2ccc(Cl)cc2n1-c1cnn(C(C)C)c1 [Compound 1-5, 5-[6-Chloro-1-(1-isopropyl-1H-pyrazol-4-yl)-2-methyl-1H-indol-3-ylsulfanyl]-nicotinic acid]",> 6.52
5,"CCn1cc(-n2c(C)c(Sc3cc(C(=O)O)ccn3)c3ccc(Cl)cc32)cn1 [Compound 1-7, 2-[6-Chloro-1-(1-ethyl-1H-pyrazol-4-yl)-2-methyl-1H-indol-3-ylsulfanyl]-isonicotinic acid]",> 6.52
6,"Cc1c(Sc2cc(C(=O)O)ccn2)c2ccc(Cl)cc2n1-c1cnn(C(C)C)c1 [Compound 1-8, 2-[6-Chloro-1-(1-isopropyl-1H-pyrazol-4-yl)-2-methyl-1H-indol-3-ylsulfanyl]-isonicotinic acid]",6.00 to 6.52
7,"CCn1cc(-n2c(C)c(Sc3cccc(C(=O)O)n3)c3ccc(Cl)c(F)c32)cn1 [Compound 1-12, 6-[6-Chloro-1-(1-ethyl-1H-pyrazol-4-yl)-7-fluoro-2-methyl-1H-indol-3-ylsulfanyl]-pyridine-2-carboxylic acid]",> 6.52
8,"Cc1c(Sc2cccc(C(=O)O)n2)c2ccc(Cl)c(F)c2n1-c1cnn(C(C)C)c1 [Compound 1-13, 6-[6-Chloro-7-fluoro-1-(1-isopropyl-1H-pyrazol-4-yl)-2-methyl-1H-indol-3-ylsulfanyl]-pyridine-2-carboxylic acid]",> 6.52
9,"CCCn1cc(-n2c(C)c(Sc3cccc(C(=O)O)n3)c3ccc(Cl)c(F)c32)cn1 [Compound 1-15, 6-[6-Chloro-7-fluoro-2-methyl-1-(1-propyl-1H-pyrazol-4-yl)-1H-indol-3-ylsulfanyl]-pyridine-2-carboxylic acid]",> 6.52
10,"CCn1cc(-n2c(C)c(Sc3cnn(CC(=O)O)c3)c3ccc(Cl)c(F)c32)cn1 [Compound 1-16, {4-[6-Chloro-1-(1-ethyl-1H-pyrazol-4-yl)-7-fluoro-2-methyl-1H-indol-3-ylsulfanyl]-pyrazol-1-yl}-acetic acid]",> 6.52
11,"CCn1cc(-n2c(C)c(Sc3cccc(CC(=O)O)n3)c3ccc(Cl)c(F)c32)cn1 [Compound 1-17, {6-[6-Chloro-1-(1-ethyl-1H-pyrazol-4-yl)-7-fluoro-2-methyl-1H-indol-3-ylsulfanyl]-pyridin-2-yl}-acetic acid]",> 6.52
12,"CCCn1cc(-n2c(C)c(Sc3cccc(CC(=O)O)n3)c3ccc(Cl)c(F)c32)cn1 [Compound 1-18, {6-[6-Chloro-7-fluoro-2-methyl-1-(1-propyl-1H-pyrazol-4-yl)-1H-indol-3-ylsulfanyl]-pyridin-2-yl}-acetic acid]",> 6.52

# Results, then the compound that gave them:
row,pIC50,SMILES
1,> 6.52,"Cc1c(Sc2cncc(C(=O)O)c2)c2ccc(Cl)cc2n1-c1cnn(C)c1 [Compound 1-3, 5-[6-Chloro-2-methyl-1-(1-methyl-1H-pyrazol-4-yl)-1H-indol-3-ylsulfanyl]-nicotinic acid]"
2,< 6.00,"Cc1c(Sc2cc(C(=O)O)ccn2)c2ccc(Cl)cc2n1-c1cnn(C)c1 [Compound 1-6, 2-[6-Chloro-2-methyl-1-(1-methyl-1H-pyrazol-4-yl)-1H-indol-3-ylsulfanyl]-isonicotinic acid]"
3,> 6.52,"CCn1cc(-n2c(C)c(Sc3cccc(C(=O)O)n3)c3ccc(Cl)cc32)cn1 [Compound 1-9, 6-[6-Chloro-1-(1-ethyl-1H-pyrazol-4-yl)-2-methyl-1H-indol-3-ylsulfanyl]-pyridine-2-carboxylic acid]"
4,> 6.52,"Cc1c(Sc2cccc(C(=O)O)n2)c2ccc(Cl)cc2n1-c1cnn(C)c1 [Compound 1-10, 6-[6-Chloro-2-methyl-1-(1-methyl-1H-pyrazol-4-yl)-1H-indol-3-ylsulfanyl]-pyridine-2-carboxylic acid]"
5,> 6.52,"CCCn1cc(-n2c(C)c(Sc3cccc(C(=O)O)n3)c3ccc(Cl)cc32)cn1 [Compound 1-11, 6-[6-Chloro-2-methyl-1-(1-propyl-1H-pyrazol-4-yl)-1H-indol-3-ylsulfanyl]-pyridine-2-carboxylic acid]"
6,> 6.52,"Cc1c(Sc2cccc(C(=O)O)n2)c2ccc(Cl)cc2n1-c1cnn(C(C)C)c1 [Compound 1-14, 6-[6-Chloro-1-(1-isopropyl-1H-pyrazol-4-yl)-2-methyl-1H-indol-3-ylsulfanyl]-pyridine-2-carboxylic acid]"
